Test: Degradation of ferrate (K2FeO4) in solution at various pH
Type: physicochemical
Protocol: FIG. 1 is a profile of the ferrate concentration starting at 0.1% (5 mM) at the native pH of K2FeO4, about 10.7. […] FIGS. 2 and 3 show the ferrate degrading faster at the higher pH's recommended by the Ciampi et al patent(s). Within about 21-46 minutes in the range of pH 11.2-11.8 the ferrate completely degraded. At this higher pH the Fe(OH)3 forms much faster and contributes to the acceleration in degradation.
FIG. 4 discloses a slightly lower pH of 10.4 which was buffered to approximately pH 9 with NaOH. Ferrate was detected in the solution for about four hours.

- time ferrate was detected in the solution (pH 10.4, buffered to approximately pH 9 with NaOH (FIG. 4)): about four
- time within which the ferrate completely degraded (pH 11.2-11.8 (FIGS. 2 and 3)): 21 to 46 min
- time ferrate was present in the solution (starting at 0.1% (5 mM), native pH of K2FeO4 about 10.7 (FIG. 1)): about 220 minutes
Substance: K2FeO4
